Experimental data: PMC9369007 (International Journal of Molecular Sciences, 2022)

How the values were obtained:
LSD1 = details: Figure 1, reported LSD1 inhibitors; cited from earlier work
MCF-7 cells = test: MTT cytotoxicity assay, MCF-7; details: Homo sapiens, MCF7, 72 h, read-out: In Vitro Cytotoxicity IC50 MCF-7
Description: (§1) The in vitro cytotoxic testing of novel derivatives was performed against different three cancer cell lines, HepG2, MCF-7, and HCT116, using standard MTT assay as previously reported [22, 62, 63, 64].

HepG2 cells = test: MTT cytotoxicity assay, HepG2; details: Homo sapiens, HepG2, 72 h, read-out: In Vitro Cytotoxicity IC50 HepG2
Description: as §1

HCT116 cells = test: MTT cytotoxicity assay, HCT116; details: Homo sapiens, HCT-116, 72 h, read-out: In Vitro Cytotoxicity IC50 HCT116
Description: as §1

LSD1 demethylase = LSD1 demethylase (Homo sapiens, UniProt O60341); test: LSD1 demethylase inhibition assay
Description: The inhibition of LSD1 activity by our tested compounds was evaluated according to a previously reported procedure [65, 66, 67, 68] and as mentioned in the assay kit in Supplementary Materials.

in vitro = details: human, WI38 normal lung fibroblast cells
[1] = LSD1 inhibitory IC50, Table 2, mean ± S.D., at least three tests
[2] = LSD1 inhibition IC50, as quoted in the docking section

Compound	melting point	IC50 (LSD1 demethylase; [1])	IC50 at 72 h (in vitro)	IC50 (LSD1 demethylase; [2])	IC50 (LSD1)	IC50 (MCF-7 cells)	IC50 (HepG2 cells)	IC50 (HCT116 cells)
CCCSc1nc(Sc2nnc(C)s2)c2nnn(CCO)c2n1 [Compound 7]					3.93 µM			
Cc1ccc(Cn2cc(CSC(=S)N3CCN(C(=O)OC(C)(C)C)CC3)nn2)cc1 [Compound 8]					0.65 µM			
Cn1c(-c2cc(-c3n[nH]c(=S)n3C)cc(-c3n[nH]c(=S)n3C)c2)n[nH]c1=S [Compound 18, 3,3′,3″-(benzene-1,3,5-triyl)tris(4-methyl-1H-1,2,4-triazole-5(4H)-thione)]	279 to 281 °C	1.51 ± 0.075 µM				23.9 ± 0.52 µM	26.1 ± 0.76 µM	38.6 ± 0.75 µM
C=CCn1c(-c2cc(-c3n[nH]c(=S)n3CC=C)cc(-c3n[nH]c(=S)n3CC=C)c2)n[nH]c1=S [Compound 21, 3,3′,3″-(benzene-1,3,5-triyl)tris(4-allyl-1H-1,2,4-triazole-5(4H)-thione)]	287 to 288 °C	0.32 ± 0.016 µM				5.83 ± 0.18 µM	2.36 ± 0.34 µM	3.56 ± 0.22 µM
CNc1nnc(-c2cc(-c3nnc(NC)s3)cc(-c3nnc(NC)s3)c2)s1 [Compound 24, 5,5′,5″-(benzene-1,3,5-triyl)tris(N-methyl-1,3,4-thiadiazol-2-amine)]	247 to 248 °C	0.45 ± 0.022 µM				9.2 ± 0.31 µM	6.47 ± 0.69 µM	18.1 ± 1.05 µM
c1c(-c2nnc(NC3CCCCC3)s2)cc(-c2nnc(NC3CCCCC3)s2)cc1-c1nnc(NC2CCCCC2)s1 [Compound 26, 5,5′,5″-(benzene-1,3,5-triyl)tris(N-cyclohexyl-1,3,4-thiadiazol-2-amine)]	218 to 219 °C	0.311 ± 0.015 µM				17.1 ± 3.1 µM	95.7 ± 3.1 µM	17.6 ± 0.71 µM
c1ccc(Nc2nnc(-c3cc(-c4nnc(Nc5ccccc5)s4)cc(-c4nnc(Nc5ccccc5)s4)c3)s2)cc1 [Compound 28, 5,5′,5″-(benzene-1,3,5-triyl)tris(N-phenyl-1,3,4-thiadiazol-2-amine)]	204 to 205 °C	0.21 ± 0.01 µM				2.34 ± 2.3 µM	25.6 ± 0.18 µM	110 ± 0.85 µM
CC(=O)O[C@H]1C(=O)[C@@]2(C)[C@H]([C@H](OC(=O)c3ccccc3)[C@]3(O)C[C@H](OC(=O)[C@H](O)[C@@H](NC(=O)c4ccccc4)c4ccccc4)C(C)=C1C3(C)C)[C@]1(OC(C)=O)CO[C@@H]1C[C@@H]2O [Taxol, reference compound]			11.8 ± 0.44 µM			7.8 ± 0.42 µM	4.44 ± 0.24 µM	7.96 ± 0.38 µM

Second part, led by results:

melting point	IC50 (LSD1 demethylase; [1])	IC50 at 72 h (in vitro)	IC50 (LSD1 demethylase; [2])	Compound	IC50 (LSD1)	IC50 (MCF-7 cells)	IC50 (HepG2 cells)	IC50 (HCT116 cells)
266 to 268 °C	0.17 ± 0.008 µM			CCn1c(-c2cc(-c3n[nH]c(=S)n3CC)cc(-c3n[nH]c(=S)n3CC)c2)n[nH]c1=S [Compound 19, 3,3′,3″-(benzene-1,3,5-triyl)tris(4-ethyl-1H-1,2,4-triazole-5(4H)-thione)]		9.66 ± 0.76 µM	55.3 ± 0.44 µM	21.6 ± 0.16 µM
240 to 241 °C	0.074 ± 0.002 µM	16 ± 0.52 µM	0.0464 µM	S=c1[nH]nc(-c2cc(-c3n[nH]c(=S)n3Cc3ccccc3)cc(-c3n[nH]c(=S)n3Cc3ccccc3)c2)n1Cc1ccccc1 [Compound 22, 3,3′,3″-(benzene-1,3,5-triyl)tris(4-benzyl-1H-1,2,4-triazole-5(4H)-thione)]		2.65 ± 0.23 µM	8.23 ± 0.85 µM	5.27 ± 0.16 µM
229 to 230 °C	0.065 ± 0.003 µM		0.0651 µM	S=c1[nH]nc(-c2cc(-c3n[nH]c(=S)n3-c3ccccc3)cc(-c3n[nH]c(=S)n3-c3ccccc3)c2)n1-c1ccccc1 [Compound 23, 3,3′,3″-(benzene-1,3,5-triyl)tris(4-phenyl-1H-1,2,4-triazole-5(4H)-thione)]		26.1 ± 0.69 µM	5.49 ± 0.38 µM	2.01 ± 0.91 µM
233 to 234 °C	0.14 ± 0.007 µM			CCNc1nnc(-c2cc(-c3nnc(NCC)s3)cc(-c3nnc(NCC)s3)c2)s1 [Compound 25, 5,5′,5″-(benzene-1,3,5-triyl)tris(N-ethyl-1,3,4-thiadiazol-2-amine)]		28.1 ± 1.1 µM	13 ± 0.71 µM	28.9 ± 0.32 µM
